Measured values from patent US20260035364A1, “BICYCLIC TETRAHYDROTHIAZEPINE DERIVATIVES” (Hoffmann-La Roche Inc., priority 2022, published 2026).

Tests used:
DGKzeta = DGKzeta (Homo sapiens, UniProt Q13574); assay: In vitro DGK inhibition assay (ADP-Glo, liposomes), DGKzeta; type: biochemical; set-up: hDGKzeta(1-928)-N-His; His (N); made in house; host or cells: Sf21 insect cells (baculovirus); conditions: 2 nM DGK ζ, 50 μM ATP, 125 uM DLG in liposomes, 1 hour reaction
Procedure, shortened: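 DGKζ (2 nM) phosphorylated DLG presented in DLG/PS/PC liposomes (final DLG 125 μM) with 50 μM ATP for 1 hour. ADP formed was read by ADP-Glo luminescence. Compounds were tested as 11-point 1:3 dose responses in 2% final DMSO.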

DGKalpha = DGKalpha (Homo sapiens, UniProt P23743); assay: In vitro DGK inhibition assay (ADP-Glo, liposomes), DGKalpha; type: biochemical; set-up: hDGKalpha(1-735)-N-His; His (N); made in house; host or cells: Sf21 insect cells (baculovirus); conditions: 4 nM DGK α, 25 μM ATP, 125 uM DLG in liposomes, 1 hour reaction
Chain of DGKalpha (P23743 whole entry): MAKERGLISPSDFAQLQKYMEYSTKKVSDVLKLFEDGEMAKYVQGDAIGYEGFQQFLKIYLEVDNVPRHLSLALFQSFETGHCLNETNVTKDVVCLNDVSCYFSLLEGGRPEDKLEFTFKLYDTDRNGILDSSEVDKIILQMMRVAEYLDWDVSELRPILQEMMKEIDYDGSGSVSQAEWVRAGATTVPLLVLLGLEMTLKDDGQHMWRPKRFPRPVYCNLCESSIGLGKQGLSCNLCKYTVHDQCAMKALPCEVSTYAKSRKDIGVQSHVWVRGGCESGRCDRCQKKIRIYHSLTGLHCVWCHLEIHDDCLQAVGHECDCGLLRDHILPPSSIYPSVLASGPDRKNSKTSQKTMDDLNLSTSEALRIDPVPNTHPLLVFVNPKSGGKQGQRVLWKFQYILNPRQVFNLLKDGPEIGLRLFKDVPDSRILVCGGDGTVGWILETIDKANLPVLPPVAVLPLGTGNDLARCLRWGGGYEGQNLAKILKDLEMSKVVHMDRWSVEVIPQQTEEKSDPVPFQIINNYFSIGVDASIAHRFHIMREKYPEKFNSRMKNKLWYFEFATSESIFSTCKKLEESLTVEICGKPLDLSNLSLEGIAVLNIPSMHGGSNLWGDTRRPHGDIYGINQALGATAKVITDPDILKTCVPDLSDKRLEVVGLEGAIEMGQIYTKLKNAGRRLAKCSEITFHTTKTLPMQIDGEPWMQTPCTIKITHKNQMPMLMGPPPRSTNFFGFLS
Procedure, shortened: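 Full-length human DGKα (4 nM) or DGKζ (2 nM) from Sf21 cells, with DLG substrate at 125 uM in PS/PC liposomes and ATP at 25 μM (α) or 50 μM (ζ); 1 h reaction. ADP formed read by ADP-Glo luminescence; compounds 11-point, 1:3 dilutions from 10 mM, 2% DMSO final.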

primary human T-cells = assay: T-cell proliferation assay (CellTiter-Glo); type: cell-based; conditions: Homo sapiens, T-cell, 120 h, CD3 condition; for Emax: 5 days, 20 μM reference compound A1 = 100%, read-out: Emax proliferation (% activation); for EC50: proliferation after 5 days, CellTiter-Glo, read-out: Tcell Proliferation CD3 EC50
Procedure, shortened: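 Expanded primary human T-cells (100k/well) on plates coated with CD3 antibody or PBS only, given a 5- or 6-point dose response (top 20 or 10 μM final, 3.333-fold steps, 0.2% DMSO). ATP measured by CellTiter-Glo 2.0 luminescence after 5 days. Normalized to DMSO and 20 μM reference A1 (100%); EC50 and Emax reported for CD3 conditions.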

Chain of DGKzeta (Q13574 whole entry): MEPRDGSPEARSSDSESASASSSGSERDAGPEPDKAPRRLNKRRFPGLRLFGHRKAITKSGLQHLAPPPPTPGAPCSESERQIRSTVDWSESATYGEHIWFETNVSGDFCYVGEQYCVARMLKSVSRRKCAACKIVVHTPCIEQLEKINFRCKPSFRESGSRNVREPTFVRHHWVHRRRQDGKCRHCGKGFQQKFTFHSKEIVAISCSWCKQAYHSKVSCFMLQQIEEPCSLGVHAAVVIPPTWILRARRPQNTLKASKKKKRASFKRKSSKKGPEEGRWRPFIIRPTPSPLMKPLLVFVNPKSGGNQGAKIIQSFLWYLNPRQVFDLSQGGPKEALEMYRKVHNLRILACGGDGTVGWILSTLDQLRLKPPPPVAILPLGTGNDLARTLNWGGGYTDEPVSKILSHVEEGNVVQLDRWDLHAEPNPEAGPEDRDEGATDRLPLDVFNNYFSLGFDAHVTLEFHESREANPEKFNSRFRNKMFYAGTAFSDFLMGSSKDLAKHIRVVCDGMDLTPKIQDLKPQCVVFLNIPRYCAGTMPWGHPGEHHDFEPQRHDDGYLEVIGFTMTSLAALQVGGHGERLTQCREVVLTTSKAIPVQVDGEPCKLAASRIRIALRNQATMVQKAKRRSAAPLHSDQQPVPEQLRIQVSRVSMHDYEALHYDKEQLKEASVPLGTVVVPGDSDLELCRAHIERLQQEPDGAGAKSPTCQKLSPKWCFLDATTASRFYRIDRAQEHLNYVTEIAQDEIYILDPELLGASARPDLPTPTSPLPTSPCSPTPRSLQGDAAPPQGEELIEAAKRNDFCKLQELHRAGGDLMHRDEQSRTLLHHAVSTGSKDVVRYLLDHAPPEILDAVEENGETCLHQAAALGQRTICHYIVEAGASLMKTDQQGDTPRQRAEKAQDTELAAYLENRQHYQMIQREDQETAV

SMILES | IC50 (DGKzeta) | IC50 (DGKalpha) | Emax (primary human T-cells) | EC50 (primary human T-cells)
CN(C)S(=O)(=O)C(C)(C)c1nnc(-c2ccc3c(c2)N(Cc2ccc(-c4ccc(C(F)(F)F)cc4)cc2)C(=O)[C@@H](N)CS3(=O)=O)o1 [Example 65, 2-[5-[(3R)-3-amino-1,1,4-trioxo-5-[[4-[4-(trifluoromethyl)phenyl]phenyl]methyl]-2,3-dihydro-1λ6,5-benzothiazepin-7-yl]-1,3,4-oxadiazol-2-yl]-N,N-dimethyl-propane-2-sulfonamide] | 8370 nM | > 62500 nM | 155% | 2620 nM
CC(C)(c1nnc(-c2ccc3c(c2)N(Cc2ccc(Oc4cccc(Cl)c4Cl)cc2)C(=O)[C@@H](N)CS3(=O)=O)o1)S(C)(=O)=O [Example 32, (3R)-3-amino-5-[[4-(2,3-dichlorophenoxy)phenyl]methyl]-7-[5-(1-methyl-1-methylsulfonyl-ethyl)-1,3,4-oxadiazol-2-yl]-1,1-dioxo-2,3-dihydro-1λ6,5-benzothiazepin-4-one] | 893 nM | 13400 nM | 75% | 356 nM
CS(=O)(=O)C1(c2nnc(-c3ccc4c(c3)N(Cc3ccc(Oc5ccccc5)cc3)C(=O)[C@@H](N)CS4(=O)=O)o2)CCC1 [Example 68, (3R)-3-amino-7-[5-(1-methylsulfonylcyclobutyl)-1,3,4-oxadiazol-2-yl]-1,1-dioxo-5-[(4-phenoxyphenyl)methyl]-2,3-dihydro-1λ6,5-benzothiazepin-4-one] | 3500 nM | > 62500 nM | 83% | 2290 nM
COc1ccc(-c2ccc(CN3C(=O)[C@@H](N)CS(=O)(=O)c4ccc(-c5noc(C(C)(C)S(C)(=O)=O)n5)cc43)cc2)cc1 [Example 63, (3R)-3-amino-5-[[4-(4-methoxyphenyl)phenyl]methyl]-7-[5-(1-methyl-1-methylsulfonyl-ethyl)-1,2,4-oxadiazol-3-yl]-1,1-dioxo-2,3-dihydro-1λ6,5-benzothiazepin-4-one] | 2330 nM | 58900 nM | 98% | 92 nM
CC(C)(c1nnc(-c2ccc3c(c2)N(Cc2ccc(-c4noc(C(F)(F)F)n4)cc2)C(=O)[C@@H](N)CS3(=O)=O)o1)S(C)(=O)=O [Example 17, (3R)-3-amino-7-[5-(1-methyl-1-methylsulfonyl-ethyl)-1,3,4-oxadiazol-2-yl]-1,1-dioxo-5-[[4-[5-(trifluoromethyl)-1,2,4-oxadiazol-3-yl]phenyl]methyl]-2,3-dihydro-1λ6,5-benzothiazepin-4-one] | 3110 nM | 3350 nM | 112% | 1460 nM
CC(C)(c1nnc(-c2ccc3c(c2)N(Cc2ccc(-c4ccc(C(F)(F)F)cn4)cc2)C(=O)[C@@H](N)CS3(=O)=O)o1)S(C)(=O)=O [Example 10] | 1750 nM | 1020 nM | 145% | 1160 nM
CC(C)(c1nc(-c2cc3c(cc2F)S(=O)(=O)C[C@H](N)C(=O)N3Cc2ccc(-c3noc(C4CC4)n3)cc2)no1)S(C)(=O)=O [Example 45, (3R)-3-amino-5-[[4-(5-cyclopropyl-1,2,4-oxadiazol-3-yl)phenyl]methyl]-8-fluoro-7-[5-(1-methyl-1-methylsulfonyl-ethyl)-1,2,4-oxadiazol-3-yl]-1,1-dioxo-2,3-dihydro-1λ6,5-benzothiazepin-4-one] | 98 nM | 818 nM | 260% | 235 nM
CC(C)(c1nc(-c2cc3c(cc2F)S(=O)(=O)C[C@H](N)C(=O)N3Cc2ccc(-c3noc(C(F)(F)F)n3)cc2)no1)S(C)(=O)=O [Example 46, (3R)-3-amino-8-fluoro-7-[5-(1-methyl-1-methylsulfonyl-ethyl)-1,2,4-oxadiazol-3-yl]-1,1-dioxo-5-[[4-[5-(trifluoromethyl)-1,2,4-oxadiazol-3-yl]phenyl]methyl]-2,3-dihydro-1λ6,5-benzothiazepin-4-one] | 256 nM | 1100 nM | 185% | 135 nM
CC1(c2nnc(-c3ccc4c(c3)N(Cc3ccc(Oc5ccccc5)cc3)C(=O)[C@@H](N)CS4(=O)=O)o2)CCCS1(=O)=O (stereo partly drawn) [Example 58, (3R)-3-amino-7-[5-(2-methyl-1,1-dioxo-thiolan-2-yl)-1,3,4-oxadiazol-2-yl]-1,1-dioxo-5-[(4-phenoxyphenyl)methyl]-2,3-dihydro-1λ6,5-benzothiazepin-4-one] | 586 nM | 3380 nM | 112% | 1100 nM
COc1cc(Cl)cc(Oc2ccc(CN3C(=O)[C@@H](N)CS(=O)(=O)c4ccc(-c5nnc(C(C)(C)S(C)(=O)=O)o5)cc43)cc2)c1 [Example 41, (3R)-3-amino-5-[[4-(3-chloro-5-methoxy-phenoxy)phenyl]methyl]-7-[5-(1-methyl-1-methylsulfonyl-ethyl)-1,3,4-oxadiazol-2-yl]-1,1-dioxo-2,3-dihydro-1λ6,5-benzothiazepin-4-one] | 2290 nM | 41000 nM | 97% | 1710 nM
CS(=O)(=O)Cn1nnnc1-c1cc2c(cc1F)S(=O)(=O)C[C@H](N)C(=O)N2Cc1ccc(Oc2ccccc2)cc1 [Example 55, (3R)-3-amino-8-fluoro-7-[1-(methylsulfonyl-methyl)tetrazol-5-yl]-1,1-dioxo-5-[(4-phenoxyphenyl)methyl]-2,3-dihydro-1λ6,5-benzothiazepin-4-one] | 6640 nM | 18300 nM | 310% | 1150 nM
CC(C)(c1nnc(-c2ccc3c(c2)N(Cc2ccc(OC4CCCC4)cc2)C(=O)[C@@H](N)CS3(=O)=O)o1)S(C)(=O)=O [Example 16, (3R)-3-amino-5-[[4-(cyclopentoxy)phenyl]methyl]-7-[5-(1-methyl-1-methylsulfonyl-ethyl)-1,3,4-oxadiazol-2-yl]-1,1-dioxo-2,3-dihydro-1λ6,5-benzothiazepin-4-one] | 820 nM | 1510 nM | 81% | 5360 nM
CC(C)(c1nnc(-c2ccc3c(c2)N(Cc2ccc(Oc4cccc(F)c4)cc2)C(=O)[C@@H](N)CS3(=O)=O)o1)S(C)(=O)=O [Example 33, (3R)-3-amino-5-[[4-(3-fluorophenoxy)phenyl]methyl]-7-[5-(1-methyl-1-methylsulfonyl-ethyl)-1,3,4-oxadiazol-2-yl]-1,1-dioxo-2,3-dihydro-1λ6,5-benzothiazepin-4-one] | 539 nM | 4750 nM | 82% | 645 nM
CC(C)(c1nnc(-c2ccc3c(c2)N(Cc2ccc(Oc4ccc(F)c(Cl)c4)cc2)C(=O)[C@@H](N)CS3(=O)=O)o1)S(C)(=O)=O [Example 37, (3R)-3-amino-5-[[4-(3-chloro-4-fluoro-phenoxy)phenyl]methyl]-7-[5-(1-methyl-1-methylsulfonyl-ethyl)-1,3,4-oxadiazol-2-yl]-1,1-dioxo-2,3-dihydro-1λ6,5-benzothiazepin-4-one] | 414 nM | 11100 nM | 115% | 1290 nM
CC(C)(c1nc(-c2cc3c(cc2F)S(=O)(=O)C[C@H](N)C(=O)N3Cc2ccc(Oc3ccccc3)nc2)no1)S(C)(=O)=O [Example 48, (3R)-3-amino-8-fluoro-7-[5-(1-methyl-1l-methylsulfonyl-ethyl)-1,2,4-oxadiazol-3-yl]-1,1-dioxo-5-[(6-phenoxy-3-pyridyl)methyl]-2,3-dihydro-1 λ6,5-benzothiazepin-4-one] | 630 nM | 1960 nM | 252% | 296 nM
CC(C)(c1nnc(-c2ccc3c(c2)N(Cc2ccc(OCc4ccccc4F)cc2)C(=O)[C@@H](N)CS3(=O)=O)o1)S(C)(=O)=O [Example 14, (3R)-3-amino-5-[[4-[(2-fluorophenyl)methoxy]phenyl]methyl]-7-[5-(1-methyl-1-methylsulfonyl-ethyl)-1,3,4-oxadiazol-2-yl]-1,1-dioxo-2,3-dihydro-1λ6,5-benzothiazepin-4-one] | 1110 nM | 2020 nM | 113% | 1220 nM
COc1ccc(-c2ccc(CN3C(=O)[C@@H](N)CS(=O)(=O)c4cc(F)c(-c5nnc(C(C)(C)S(C)(=O)=O)o5)cc43)cc2)cc1 [Example 29, (3R)-3-amino-8-fluoro-5-[[4-(4-methoxyphenyl)phenyl]methyl]-7-[5-(1-methyl-1-methylsulfonyl-ethyl)-1,3,4-oxadiazol-2-yl]-1,1-dioxo-2,3-dihydro-1λ6,5-benzothiazepin-4-one] | 251 nM | 534 nM | 108% | 55 nM
